The text below walks through data of patent US8551999B2, “Heterocyclic compound and pharmaceutical composition thereof” (Otsuka Pharmaceutical Co., Ltd., priority 2007, dated 2013).

What is called melting point is the temperature, or range, at which the solid turns liquid.

For the molecule `Br.CCCOc1ccc(CN2CCN(C(=O)c3cc4c(C)c(Oc5ccc(N(C)C(=O)c6ccc(C(F)(F)F)cc6)cn5)ccc4n3C)CC2)cc1` [Example 434, N-(6-{1,4-Dimethyl-2-[4-(4-propoxybenzyl)piperazine-1-carbonyl]-1H-indol-5-yloxy}pyridin-3-yl)-N-methyl-4-trifluoromethyl-benzamide hydrobromide], the melting point was in the range of 204 to 208 °C.

In turn, `Br.CN(C(=O)c1ccc(C(F)(F)F)cc1)c1ccc(Oc2ccc3cc(C(=O)N4CCN(Cc5ccc(OCCF)cc5)CC4)n(C)c3c2)nc1` [Example 438, N-[6-(2-{4-[4-(2-Fluoroethoxy)benzyl]piperazine-1-carbonyl}-1-methyl-1H-indol-6-yloxy)pyridin-3-yl]-N-methyl-4-trifluoromethyl-benzamide hydrobromide] yielded a melting point of 215.3 to 216.6 °C.

In turn, `CN(C(=O)c1ccc(C(F)(F)F)cc1)c1ccc(Oc2ccc3c(c2)cc(C(=O)N2CCN(Cc4ccc5c(c4)OC(F)(F)O5)CC2)n3C)nc1.O=C(O)C(=O)O` [Example 439, N-(6-{2-[4-(2,2-Difluorobenzo[1,3]dioxol-5-ylmethyl)piperazine-1-carbonyl]-1-methyl-1H-indol-5-yloxy}pyridin-3-yl)-N-methyl-4-tri-fluoromethylbenzamide oxalate] registered a melting point of 155.7 to 156.9 °C.

For the molecule `Br.CN(C(=O)c1ccc(C(F)(F)F)cc1)c1ccc(Oc2ccc3cc(C(=O)N4CCN(Cc5ccc6c(c5)OC(F)(F)O6)CC4)n(C)c3c2)nc1` [Example 440, N-(6-{2-[4-(2,2-Difluorobenzo[1,3]dioxol-5-ylmethyl)piperazine-1-carbonyl]-1-methyl-1H-indol-6-yloxy}pyridin-3-yl)-N-methyl-4-tri-fluoromethylbenzamide hydrobromide], the melting point fell in the range of 243.3 to 245.1 °C.

Molecule `Cc1c(Oc2ccc(N(C)C(=O)c3ccc(C(F)(F)F)cc3)cn2)ccc2c1cc(C(=O)N1CCN(Cc3ccc4c(c3)OC(F)(F)O4)CC1)n2C` [Example 441, N-(6-{2-[4-(2,2-Difluorobenzo[1,3]dioxol-5-ylmethyl)piperazine-1-carbonyl]-1,4-dimethyl-1H-indol-5-yloxy}pyridin-3-yl)-N-methyl-4-trifluoromethylbenzamide] gave a melting point of 97.9 to 99.5 °C.

As for `Br.CN(C(=O)c1ccc(C(F)(F)F)cc1)c1ccc(Oc2ccc3cc(C(=O)N4CCN(Cc5ccc(OC(F)(F)C(F)F)cc5)CC4)n(C)c3c2)nc1` [Example 443, N-Methyl-N-[6-(1-methyl-2-{4-[4-(1,1,2,2-tetrafluoroethoxy)-benzyl]piperazine-1-carbonyl}-1H-indol-6-yloxy)pyridin-3-yl]-4-trifluoromethylbenzamide hydrobromide], the melting point lay within 245.4 to 247.6 °C.

In turn, `CC(C)Oc1ccc(CN2CCN(C(=O)c3cc4ccc(Oc5ccc(N(C)C(=O)c6ccc(C(F)(F)F)cc6)cn5)cc4n3C)CC2)cn1.O=C(O)/C=C\C(=O)O` [Example 444, N-(6-{2-[4-(6-Isopropoxypyridin-3-ylmethyl)piperazine-1-carbonyl]-1-methyl-1H-indol-6-yloxy}pyridin-3-yl)-N-methyl-4-tri-fluoromethylbenzamide maleate] returned a melting point of 156.8 to 157.4 °C.

Regarding `Br.CN(C(=O)c1ccc(C(F)(F)F)cc1)c1ccc(Oc2ccc3cc(C(=O)N4CCN(Cc5ccc(OC(F)(F)F)cc5)CC4)n(C)c3c2)nc1` [Example 446, N-Methyl-N-(6-{1-methyl-2-[4-(4-trifluoromethoxybenzyl)-piperazine-1-carbonyl]-1H-indol-6-yloxy}pyridin-3-yl)-4-tri-fluoromethylbenzamide hydrobromide], the melting point lay in the range of 237 to 239 °C.

As for `Br.CN(C(=O)c1ccc(C(F)(F)F)cc1Cl)c1ccc(Oc2ccc3cc(C(=O)N4CCN(Cc5ccc(OCCF)cc5)CC4)n(C)c3c2)nc1` [Example 447, 2-Chloro-N-[6-(2-{4-[4-(2-fluoroethoxy)benzyl]piperazine-1-carbonyl}-1-methyl-1H-indol-6-yloxy)pyridin-3-yl]-N-methyl-4-tri-fluoromethylbenzamide hydrobromide], the melting point is 223.6 to 225.4 °C.

The molecule `Br.CN(C(=O)c1ccc(C(F)(F)F)cc1Cl)c1ccc(Oc2ccc3cc(C(=O)N4CCN(Cc5ccc(OCC(F)F)cc5)CC4)n(C)c3c2)nc1` [Example 448, 2-Chloro-N-[6-(2-{4-[4-(2,2-difluoroethoxy)benzyl]piperazine-1-carbonyl}-1-methyl-1H-indol-6-yloxy)pyridin-3-yl]-N-methyl-4-tri-fluoromethylbenzamide hydrobromide] gave a melting point of 232.4 to 232.8 °C.

For `Br.CN(C(=O)c1ccc(C(F)(F)F)cc1Cl)c1ccc(Oc2ccc3cc(C(=O)N4CCN(Cc5ccc(OCC(F)(F)F)cc5)CC4)n(C)c3c2)nc1` [Example 449, 2-Chloro-N-methyl-N-[6-(1-methyl-2-{4-[4-(2,2,2-trifluoroethoxy)-benzyl]piperazine-1-carbonyl}-1H-indol-6-yloxy)pyridin-3-yl]-4-trifluoromethylbenzamide hydrobromide], the melting point is 239.5 to 240.6 °C.

`Br.CCCOc1ccc(CN2CCN(C(=O)c3cc4ccc(Oc5ccc(N(C)C(=O)c6ccc(C(F)(F)F)cc6Cl)cn5)cc4n3C)CC2)cc1` [Example 450, 2-Chloro-N-methyl-N-(6-{1-methyl-2-[4-(4-propoxybenzyl)-piperazine-1-carbonyl]-1H-indol-6-yloxy}pyridin-3-yl)-4-tri-fluoromethylbenzamide hydrobromide] yielded a melting point of 238.6 to 240.1 °C.

In turn, `Br.CC(C)Oc1ccc(CN2CCN(C(=O)c3cc4ccc(Oc5ccc(N(C)C(=O)c6ccc(C(F)(F)F)cc6Cl)cn5)cc4n3C)CC2)cc1` [Example 451, 2-Chloro-N-(6-{2-[4-(4-isopropoxybenzyl)piperazine-1-carbonyl]-1-methyl-1H-indol-6-yloxy}pyridin-3-yl)-N-methyl-4-trifluoromethyl-benzamide hydrobromide] displayed a melting point of 248.3 to 252.3 °C.

With `Br.Cn1c(C(=O)N2CCN(Cc3ccc4c(c3)OCO4)CC2)cc2ccc(Oc3ccc(NC(=O)c4ccc(C(F)(F)F)cc4)cn3)cc21` [Example 454, N-{6-[2-(4-Benzo[1,3]dioxol-5-ylmethylpiperazine-1-carbonyl)-1-methyl-1H-indol-6-yloxy]pyridin-3-yl}-4-trifluoromethylbenzamide hydrobromide], the melting point fell in the range of 264 to 265.6 °C.

`Br.CN(C(=O)c1ccc(OC(F)(F)F)cc1)c1ccc(Oc2ccc3cc(C(=O)N4CCN(Cc5ccc(OCC(F)(F)F)cc5)CC4)n(C)c3c2)nc1` [Example 456, N-Methyl-N-[6-(1-methyl-2-{4-[4-(2,2,2-trifluoroethoxy)benzyl]-piperazine-1-carbonyl}-1H-indol-6-yloxy)pyridin-3-yl]-4-tri-fluoromethoxybenzamide hydrobromide] came in with a melting point of 227.4 to 229.2 °C.

`Br.Cn1c(C(=O)N2CCN(Cc3ccc(O)cc3)CC2)cc2ccc(Oc3ccc(NC(=O)c4ccc(C(F)(F)F)cc4)cn3)cc21` [Example 459, N-(6-{2-[4-(4-Hydroxybenzyl)piperazine-1-carbonyl]-1-methyl-1H-indol-6-yloxy}pyridin-3-yl)-4-trifluoromethylbenzamide hydrobromide] had a melting point of 241.4 to 242.7 °C.

The molecule `Br.CC(C)Oc1ccc(CN2CCN(C(=O)c3cc4cc(Oc5ccc(NC(=O)c6ccc(C(F)(F)F)cc6)cn5)ccc4n3C)CC2)cc1` [Example 460, N-(6-{2-[4-(4-Isopropoxybenzyl)piperazine-1-carbonyl]-1-methyl-1H-indol-5-yloxy}pyridin-3-yl)-4-trifluoromethylbenzamide hydrobromide] displayed a melting point of 236.8 to 243.8 °C.

Turning to `Br.Cn1c(C(=O)N2CCN(Cc3ccc(OCC(F)F)cc3)CC2)cc2cc(Oc3ccc(NC(=O)c4ccc(C(F)(F)F)cc4)cn3)ccc21` [Example 462, N-[6-(2-{4-[4-(2,2-Difluoroethoxy)benzyl]piperazine-1-carbonyl}-1-methyl-1H-indol-5-yloxy)pyridin-3-yl]-4-trifluoromethyl-benzamide hydrobromide], the melting point was in the range of 229.1 to 230.8 °C.

Consider `Br.Cn1c(C(=O)N2CCN(Cc3ccc(OCC(F)(F)F)cc3)CC2)cc2cc(Oc3ccc(NC(=O)c4ccc(C(F)(F)F)cc4)cn3)ccc21` [Example 463, N-[6-(1-Methyl-2-{4-[4-(2,2,2-trifluoroethoxy)benzyl]piperazine-1-carbonyl}-1H-indol-5-yloxy)pyridin-3-yl]-4-trifluoromethyl-benzamide hydrobromide], for which the melting point was 236.8 to 237.5 °C.

With `Br.Cn1c(C(=O)N2CCN(Cc3ccc(OCCF)cc3)CC2)cc2ccc(Oc3ccc(NC(=O)c4ccc(Cl)c(Cl)c4)cn3)cc21` [Example 464, 3,4-Dichloro-N-[6-(2-{4-[4-(2-fluoroethoxy)benzyl]piperazine-1-carbonyl}-1-methyl-1H-indol-6-yloxy)pyridin-3-yl]benzamide hydrobromide], the melting point is 232.4 to 234.2 °C.

`Br.Cn1c(C(=O)N2CCN(Cc3ccc(OCC(F)(F)F)cc3)CC2)cc2ccc(Oc3ccc(NC(=O)c4ccc(Cl)c(Cl)c4)cn3)cc21` [Example 465, 3,4-Dichloro-N-[6-(1-methyl-2-{4-[4-(2,2,2-trifluoroethoxy)-benzyl]piperazine-1-carbonyl}-1H-indol-6-yloxy)pyridin-3-yl]-benzamide hydrobromide] showed a melting point of 251.8 to 253.5 °C.

`Br.CC(C)Oc1ccc(CN2CCN(C(=O)c3cc4ccc(Oc5ccc(NC(=O)c6ccc(Cl)c(Cl)c6)cn5)cc4n3C)CC2)cn1` [Example 466, 3,4-Dichloro-N-(6-{2-[4-(6-isopropoxypyridin-3-ylmethyl)-piperazine-1-carbonyl]-1-methyl-1H-indol-6-yloxy}pyridin-3-yl)-benzamide hydrobromide] yielded a melting point of 236.9 to 240.4 °C.

With `Br.Cn1c(C(=O)N2CCN(Cc3ccc4c(c3)OC(F)(F)O4)CC2)cc2ccc(Oc3ccc(NC(=O)c4ccc(Cl)c(Cl)c4)cn3)cc21` [Example 467, 3,4-Dichloro-N-(6-{2-[4-(2,2-difluorobenzo[1,3]dioxol-5-yl-methyl)piperazine-1-carbonyl]-1-methyl-1H-indol-6-yloxy}pyridin-3-yl)benzamide hydrobromide], the melting point lay in the range of 253 to 254.8 °C.
